The test system of assay [1] is Mr = 72,000 brush border membrane protein. Particulars: 10 μM cyclic AMP.
Text: The preparation of the rat renal proximal brush border membrane vesicles was accomplished in the following manner: When the systolic blood pressure in the DOCA and the 2K1C rat groups became elevated compared with each of the control groups (usually in 3-4 weeks), the kidney cortex was removed to prepare the proximal brush border membrane vesicles by a calcium precipitation method as described in Kempson et al., Inhibition of Renal Brush Border Phosphate Transport and Stimulation of Renal Gluconeogenesis by Cyclic AMP and Parathyroid Hormone, Biochem., Pharmacol., 32:pp. 1533-37 (1983). Vesicles were utilized only if there was at least an 8-fold enrichment in gamma-glutamyl transpeptidase activity in the proximal brush border membrane fraction compared to the original cortical homogenate. […]
The test results reported herein were determined by SDS polyacrylamide gel electrophoresis, autoradiography and densitometry. […] Protein concentration was determined by the method of Bradford using bovine serum albumin as a standard.
Autoradiography and densitometry were performed in accordance with Laminski, et al., Phosphorylation of Endogenous Protein in Primate Kidney. […] Scan traces were recorded with an Ultroscan XL laser densitometer (Pharmacia, LKB) and analyzed by using the computer GelScan XL Software (Version 2.1, Pharmacia).
Assay [2] can be described thus: Systolic blood pressure by tail-cuff method in DOCA-salt hypertensive rats. It is filed as in vivo, rat. Conditions: mean±SEM. Here is the method: (§1) Male Sprague-Dawley rats, weighing 125-150 g (Charles River, Wilmington, Mass.), were randomly divided into three groups: (1) DOCA-salt group-rats underwent unilateral nephrectomy and were given an initial injection of 12.5 mg of deoxycorticosterone acetate (DOCA) followed by 6.5 mg weekly which was coupled with 1 percent saline as drinking water (Pamani et al. Altered Activity of the Sodium-Potassium Pump in Arteries of Rats with Steroid Hypertension, Clin. Sci. Mol. Med., 55:pp. 41s-43s (1978); (2) Uninephrectomized control group (UNE)-rats underwent unilateral nephrectomy and were given tap water ad libitum; (3) Normal group-normal rats drank tap water ad libitum and were not subjected to surgery. All three groups were maintained on normal rat chow. Systolic blood pressure was measured weekly by the tail-cuff method.
Referring to FIG. 1, there is shown a plot of systolic blood pressure in mm Hg versus time in days. The study involved ten rats in each of the three DOCA categories: (a) DOCA-salt; (b) UNE-uninephrectomized; and (c) NOR, normal group. The 2K1C study involved eight rats in each of the three groups: (a) 2K1C; (b) SHAM, sham-operated group; and (c) NOR, normal group.
The systolic blood pressure in the 2K1C rats increased from 121.4±1.7 mm Hg to 137.6±3.0 mm Hg by the first week after surgery and to 173.5±4.4 mm Hg by the 21st day (p<0.001). […]

Assay [3] has as its system Mr = 72,000 brush border membrane protein. The assay is described as follows: Phosphorylation of 72,000 Mr renal brush border membrane protein from treated rats (SDS-PAGE, autoradiography, densitometry). Format: in vivo, rat. Conditions: for relative area units under the peak in the densitometry tracings of autoradiogram of the Mr = 72,000 brush border membrane protein: mean ± SEM. Here is the method:
as §1, with “([…]” for “(Pamani”, “method. […] J. Biol. Chem. 257:pp 992-99 (1982). […] Anal Biochem, 72:pp. 248-54 (1976). Autoradiography and densitometry were performed in accordance with […], et al., Phosphorylation of Endogenous Protein in Primate Kidney. […] Biochem. Physiol. 103B:pp 267-73 (1992). […] Data is expressed as mean±SEM, with statistical significance being calculated by Student's t test and the ANOVA test.” for “method.”

Each structure is given as a SMILES string.

The record followed here is patent publication US20030044856A1, “Method of determining volume dependent hypertension through protein reduction in phosphorylation or concentration and related apparatus” (priority 1997, published 2003).

As for `Nc1ncnc2c1ncn2[C@@H]1O[C@@H]2COP(=O)(O)O[C@H]2[C@H]1O` [cyclic AMP], in assay [1] (membranes from 2K1C, Sham and Normal rats), the “influence of cAMP on phosphorylation of the Mr=72,000 protein” value is on record as “not influenced”. In assay [1] (membranes from DOCA, UNE and Normal rats), the “effect of addition of cyclic AMP on phosphorylation of the Mr=72,000 protein” value is “did not affect”.
Regarding `CC(=O)OCC(=O)[C@H]1CC[C@H]2[C@@H]3CCC4=CC(=O)CC[C@]4(C)[C@H]3CC[C@]12C` [DOCA, deoxycorticosterone acetate], the systolic blood pressure in assay [2] (7th day of treatment) is recorded as 128.9±2.1 mm Hg; in assay [2] (21st day, p<0.001), 188.2±5.3 mm Hg. Further, the “relative area units under the peak in the densitometry tracings of autoradiogram of the Mr = 72,000 brush border membrane protein” value in assay [3] (+cAMP (10 μM cyclic AMP in incubation mixture)) is 1.218 ± 0.33 relative area units; in assay [3] (−cAMP (no cyclic AMP in incubation mixture)), 1.389 ± 0.37 relative area units. For the same compound, the “phosphorylation of the Mr=72,000 protein compared with UNE and normal rats” value in assay [3] (DOCA group rats, p<0.01) is on record as “significant attenuation”.
